Consider eight molecules from patent US8362033B1, “Compounds and methods to dysregulate CA2+ homeostasis for cancer treatment” (University of South Florida, priority 2008, dated 2013).

One assay has as its target T1, TRPM7 (Homo sapiens, UniProt Q96QT4).
T1 construct: host or cells: HEK-293 (heterologous expression, in the cited studies)
Conditions: cited from earlier work; for Inhibition of TRPM7 channels at 10 μM / Concentration required to inhibit TRPM7: HEK-293 cells.

Assay [1] has as its system U937 cells. The experiment in a line: MTT cytotoxicity / growth rate assay. It counts as cell-based. As to the method: Cytotoxicity analysis was determined by using the 3-(4,5-dimethylthiazol-2-yl)-2,5-diphenyltetrazolium bromide (MTT) dye reduction assay as previously described (Damiano J S, et al. Cell adhesion mediated drug resistance (CAM-DR): role of integrins and resistance to apoptosis in human myeloma cell lines. Blood. 1999 Mar. 1; 93(5):1658-67). For all cytotoxicity studies cells were exposed to both calcium modulating agents and tipifarnib simultaneously for 72 hours. After 72 hours at 37° C., 50 μl of MTT (Sigma Chemical) was added to each well and cells were incubated for an additional four hours. Plates were spun for 5 minutes at 1200 rpm in a Sorvall RT6000D table top centrifuge (Asheville, N.C.), supernatants were removed, and water-insoluble product was dissolved in 100 μl of 100% DMSO. Plates were shaken for 30 seconds and absorbance read at 540 nm on a Wallac Victor-2 1420 Multilabel Counter (PerkinElmer, Torrance, Calif.). All experiments were done in triplicate.
The effects of the Ca^2+ channel inhibition, using La^3+ and Gd^3+, were tested on survival of U937 cells.

Another assay deals with TRPM2. Conditions: cited from earlier work.
Another assay has as its system 8226 cells. In words: Fura-2 intracellular Ca2+ fluorometry in 8226 cells. It is filed as cell-based, human.
The subject of assay [2] is U937 cells. Conditions: 5 μM tipifarnib, adhered U937 cells, p<0.001.
Procedure: (§1) Fura-2 loading was carried out incubating the plated cells for 1 hour at room temperature in physiological saline solution (PSS) consisting of (in mM): 140 NaCl, 3 KCl, 2.5 CaCl2, 1.2 MgCl2, 7.7 glucose and 10 HEPES (pH to 7.2 with NaOH), which also contained 1 μM of the membrane permeable ester form of fura-2, acetoxymethylester (fura-2 AM) fura-2 acetoxymethylester (fura-2 AM, +0.1% DMSO) and 0.1% dimethyl sulfoxide (DMSO). The coverslips were then washed in PSS (fura-2-AM free) prior to the experiments being carried out.
(§2) A DG-4 high-speed wavelength switcher (Sutter Instruments Co., Novato, Calif.) was used to apply alternating excitation light, and fluorescent emission was captured using a Sensicam digital CCD camera (Cooke Corporation, Auburn Hills, Mich.) and recorded with Slidebook 3.0 software (Intelligent Imaging Innovations, Denver, Colo.).
(§3) Therefore, the effects of tipifarnib on intracellular Ca^2+ concentrations in tumor cells were studied in adhered U937 leukemic cells using fura-2 mediated Ca^2+ fluorometry.
For assay [3], the system named is U937 cells. In words: Cell death by ER stressors in suspension or fibronectin-adhered U937 cells. It counts as cell-based. Conditions: for Cell death in suspension and fibronectin adhered tumor cells: FIGS. 2(a)-(c); for Difference in viability between suspension and fibronectin-adherent cells: concentration range tested. As to the method: FIGS. 2(a)-(c) are graphs showing agents which evoke ER stress overcome cell adhesion mediated drug resistance in U937 cells. Percent of specific cell death induced in U937 cells in suspension (Suspension) or following adhesion to plates coated in fibronectin (Fibronectin) as a result of incubation in (A) tunicamycin, (B) thapsigargin, or (C) brefeldin A at the indicated concentrations.

The subject of assay [4] is U937 cells. In words: Fura-2 intracellular Ca2+ fluorometry in adhered U937 cells. As to conditions: 5 μM tipifarnib, 10 μM FTI-277, 10 μM FTI-2153.
Procedure: as §1, §2, §3
The target in the next assay is Orai3 channels (Homo sapiens, UniProt Q9BRQ5). Conditions: up to 200 μM; cited from earlier work.
The next assay deals with 8226/R5 cells. In words: Fura-2 intracellular Ca2+ fluorometry in tipifarnib-resistant 8226/R5 cells. As to conditions: 5 μM tipifarnib with 100 μM 2-APB. It counts as cell-based, human.
In another assay the target is Orai 1 channels (Homo sapiens, UniProt Q96D31). Conditions: endogenously and exogenously expressed; cited from earlier work.
Sequence of Orai 1 channels (Q96D31 whole entry): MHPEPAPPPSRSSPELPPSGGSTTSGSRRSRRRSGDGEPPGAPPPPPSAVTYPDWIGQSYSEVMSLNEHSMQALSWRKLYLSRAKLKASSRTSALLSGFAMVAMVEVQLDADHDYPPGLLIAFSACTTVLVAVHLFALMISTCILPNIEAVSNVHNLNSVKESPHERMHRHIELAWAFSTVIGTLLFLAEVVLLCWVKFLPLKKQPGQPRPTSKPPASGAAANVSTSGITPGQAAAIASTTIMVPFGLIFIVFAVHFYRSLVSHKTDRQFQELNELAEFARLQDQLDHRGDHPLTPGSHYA
The target in the next assay is Orai2 (Homo sapiens, UniProt Q96SN7). Conditions: cited from earlier work.
Sequence of Orai2 (Q96SN7 whole entry, species assumed): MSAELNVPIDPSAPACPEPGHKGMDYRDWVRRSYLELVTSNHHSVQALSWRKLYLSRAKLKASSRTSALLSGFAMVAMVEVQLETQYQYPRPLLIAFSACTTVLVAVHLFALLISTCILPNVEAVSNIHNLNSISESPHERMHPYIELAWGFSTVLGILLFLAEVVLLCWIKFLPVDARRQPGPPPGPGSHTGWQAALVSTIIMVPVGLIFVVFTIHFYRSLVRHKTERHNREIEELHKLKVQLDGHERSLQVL

Where two headings read alike, the source gives them in different places. Some results are limits rather than exact numbers.

T1 sequence (Q96QT4 whole entry, species assumed): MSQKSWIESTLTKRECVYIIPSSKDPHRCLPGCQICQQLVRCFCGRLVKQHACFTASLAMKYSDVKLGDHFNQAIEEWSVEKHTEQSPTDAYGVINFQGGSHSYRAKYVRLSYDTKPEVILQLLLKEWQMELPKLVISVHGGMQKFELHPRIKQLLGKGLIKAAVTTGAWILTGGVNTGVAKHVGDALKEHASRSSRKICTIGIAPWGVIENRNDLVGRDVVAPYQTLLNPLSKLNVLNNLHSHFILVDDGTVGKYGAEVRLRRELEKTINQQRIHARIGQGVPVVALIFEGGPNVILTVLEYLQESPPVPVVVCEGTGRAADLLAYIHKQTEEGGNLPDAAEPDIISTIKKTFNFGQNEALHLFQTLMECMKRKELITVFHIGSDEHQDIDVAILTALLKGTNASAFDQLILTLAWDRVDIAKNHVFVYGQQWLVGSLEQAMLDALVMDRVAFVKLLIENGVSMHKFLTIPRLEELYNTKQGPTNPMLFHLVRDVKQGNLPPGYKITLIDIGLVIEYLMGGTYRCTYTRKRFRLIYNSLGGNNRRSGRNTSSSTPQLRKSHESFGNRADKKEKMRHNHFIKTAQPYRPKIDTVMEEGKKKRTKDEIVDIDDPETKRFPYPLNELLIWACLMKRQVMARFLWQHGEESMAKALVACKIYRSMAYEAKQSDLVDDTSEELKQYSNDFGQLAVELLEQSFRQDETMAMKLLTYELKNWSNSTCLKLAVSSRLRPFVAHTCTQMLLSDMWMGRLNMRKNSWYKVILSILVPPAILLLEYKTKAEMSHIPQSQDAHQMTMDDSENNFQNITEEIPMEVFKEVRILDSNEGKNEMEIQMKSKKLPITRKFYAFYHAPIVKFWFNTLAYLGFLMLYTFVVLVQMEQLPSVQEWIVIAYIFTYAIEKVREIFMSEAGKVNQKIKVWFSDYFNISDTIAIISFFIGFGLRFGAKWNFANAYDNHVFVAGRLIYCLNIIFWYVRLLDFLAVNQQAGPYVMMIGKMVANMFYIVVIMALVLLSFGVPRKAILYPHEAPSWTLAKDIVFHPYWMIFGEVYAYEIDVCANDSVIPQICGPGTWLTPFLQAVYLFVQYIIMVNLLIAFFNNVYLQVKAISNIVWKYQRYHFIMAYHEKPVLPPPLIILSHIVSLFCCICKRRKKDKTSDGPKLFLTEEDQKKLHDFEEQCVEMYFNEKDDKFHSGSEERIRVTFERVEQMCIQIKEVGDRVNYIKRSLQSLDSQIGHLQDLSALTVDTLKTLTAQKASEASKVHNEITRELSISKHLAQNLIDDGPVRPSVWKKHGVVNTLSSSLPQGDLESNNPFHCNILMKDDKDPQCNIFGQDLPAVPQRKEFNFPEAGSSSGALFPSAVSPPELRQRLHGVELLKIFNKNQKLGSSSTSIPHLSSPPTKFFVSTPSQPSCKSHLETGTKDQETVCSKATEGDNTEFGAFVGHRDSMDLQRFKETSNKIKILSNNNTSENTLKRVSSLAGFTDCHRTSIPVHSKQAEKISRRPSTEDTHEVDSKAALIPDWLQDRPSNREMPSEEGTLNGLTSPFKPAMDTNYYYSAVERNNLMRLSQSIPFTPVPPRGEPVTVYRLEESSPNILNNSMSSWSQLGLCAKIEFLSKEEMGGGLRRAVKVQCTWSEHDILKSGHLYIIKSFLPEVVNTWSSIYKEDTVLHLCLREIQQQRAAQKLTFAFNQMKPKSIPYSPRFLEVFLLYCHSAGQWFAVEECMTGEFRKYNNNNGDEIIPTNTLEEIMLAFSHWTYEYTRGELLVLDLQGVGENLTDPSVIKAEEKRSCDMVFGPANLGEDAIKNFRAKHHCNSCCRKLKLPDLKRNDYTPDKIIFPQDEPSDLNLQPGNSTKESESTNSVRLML
Procedure for 8226 cells: as §1, §2
Procedure for 8226/R5 cells: as §1, §2

For the molecule `[Cl][La]([Cl])[Cl]` [La^3+, lanthanum chloride], on TRPM7, the “Inhibition of TRPM7 channels at 10 μM” value was “failed to inhibit TRPM7 channels” and the “Concentration required to inhibit TRPM7” value is reported as 1 mM. The “Effect of modulator on tipifarnib-induced growth inhibition / cell survival” value in the assay with U937 cells [1] (U937 cells, MTT, 72 hours, 200 nM La3+, Gd3+ 100, ruthenium red 100 nM, 2-APB 5 μM and 100 μM) is on record as “statistically significant increase in survival of U937 cells”. Also, the “Inhibition of TRPM2 channels” value in the assay with TRPM2 (La3+ ≦100 μM) is listed as “not inhibited”.
As to `Cn1cncc1[C@@](N)(c1ccc(Cl)cc1)c1ccc2c(c1)c(-c1cccc(Cl)c1)cc(=O)n2C` [tipifarnib, Tipifarnib], in the assay with 8226 cells (5 µM), the “Amplitude of the [Ca2+]i response” value was 215 ± 17 nM. Further, the “Change in [Ca2+]i in 8226 cells, greater than in 8226/R5 cells” value in the assay with 8226 cells (5 μM tipifarnib) is reported as > 250%. Also, the “Increase in [Ca2+]i relative to vehicle alone (DMSO)” value with U937 cells [2] was “more than 5 fold”.
Regarding `C/C=C(/C)C(=O)O[C@H]1C(C)=C2[C@H]([C@@H]1OC(=O)CCCCCCC)[C@@](C)(OC(C)=O)C[C@H](OC(=O)CCC)[C@@]1(O)[C@H]2OC(=O)[C@@]1(C)O` [thapsigargin], in the assay on U937 cells [3], the “Cell death in suspension and fibronectin adhered tumor cells” value (“Cell death” for short) is recorded as “dose dependent increase in cell death”; the “Difference in viability between suspension and fibronectin-adherent cells” value (shortened to “Difference”) was “no significant difference”.
Regarding `[Gd+3]` [Gd^3+], at TRPM7, the “Inhibition of TRPM7 channels at 10 μM” value is recorded as “failed to inhibit TRPM7 channels” and the “Concentration required to inhibit TRPM7” value was 1 mM.
For tunicamycin, in the assay with U937 cells [3], the “Cell death” value is “dose dependent increase in cell death”; the “Difference” value was “no significant difference”.
Take `COC(=O)[C@H](CCSC)NC(=O)c1ccc(NC[C@@H](N)CS)cc1-c1ccccc1` [FTI-277]: the “Elevation of [Ca2+]i” value with U937 cells [4] is “failed to stimulate elevations in [Ca^2+]i”.
Turning to `NCCOB(c1ccccc1)c1ccccc1` [2-APB, 2-aminoethoxydiphenyl borate], the “Modulation of Orai3 channels by 2-APB” value at Orai3 channels is “potentiated by 2-APB even at 50 μM and do not seem to be blocked by concentrations as high as 200 μM”. Besides, the “Amplification of tipifarnib-evoked increase in [Ca2+]i by 2-APB” value with 8226/R5 cells is reported as ~250%; with 8226 cells (8226 cells, 5 μM tipifarnib with 100 μM 2-APB), ~400%. Further, the “Modulation of Orai1 channels by 2-APB” value at Orai 1 channels is recorded as “potentiated at concentrations of 2-APB below 5 μM but inhibited by higher concentrations”. Besides, the “Block of TRPM7-evoked currents” value at TRPM7 (100 μM 2-APB) was ~25%. For the same molecule, in the assay with U937 cells [1], the “Effect of modulator on tipifarnib-induced growth inhibition / cell survival” value is reported as “enhanced cell death”. The “Modulation of Orai2 by 2-APB” value on Orai2 was “transient potentiation at concentrations of 2-APB≦20 μM and also blocked by higher concentrations”. In the assay on TRPM2 (HEK-293 cells, 150 μM 2-APB), the “Block of TRPM2 channels at 150 μM (second study)” value is recorded as “not blocked”. The IC50 in the assay on TRPM2 (heterologously expressed in HEK-293 cells, read-out: IC50 for block of TRPM2 channels) is 1000 nM.
Regarding `C[C@H]1CCC/C=C/[C@@H]2C[C@H](O)C[C@H]2[C@H](O)/C=C/C(=O)O1` [Brefeldin A], in the assay on U937 cells [3], the “Cell death” value was “dose dependent increase in cell death”; the “Difference” value is reported as “no significant difference”.
